# Laboratory results: article PMC11882969 (Nature Communications, 2025)
# Where “and” joins values, the source holds several entries; their conditions need not be identical. Equal values may be shown once.
# Target: hCB2 (Homo sapiens, UniProt P34972)
# Assay: bioSensAll ebBRET signaling profiling, hCB2
# Type: cell-based
# Design: host or cells: HEK293SL cells, transient PEI transfection
# Settings: for RE, relative efficacy: vs CP-55,940; for G13 hCB2 / G15 hCB2 / Gq hCB2 / Gs hCB2: raw signal
# [1] = Log [Compound] (M) not printed (line after -13)
# Sequence of hCB2 (P34972 whole entry): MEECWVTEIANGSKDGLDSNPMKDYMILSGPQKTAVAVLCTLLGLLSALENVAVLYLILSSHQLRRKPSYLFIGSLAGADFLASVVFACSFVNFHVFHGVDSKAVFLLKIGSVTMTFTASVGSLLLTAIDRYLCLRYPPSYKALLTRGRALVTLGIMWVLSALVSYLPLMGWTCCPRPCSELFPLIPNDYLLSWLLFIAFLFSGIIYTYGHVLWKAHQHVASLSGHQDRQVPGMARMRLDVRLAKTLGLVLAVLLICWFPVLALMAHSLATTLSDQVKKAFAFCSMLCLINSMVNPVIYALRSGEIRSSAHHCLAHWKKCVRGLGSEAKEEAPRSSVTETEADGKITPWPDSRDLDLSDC
smiles,measurement,setting,value
COC(=O)[C@@](C)(NC(=O)c1cc(C)n(-c2cccc(C(F)(F)F)c2)n1)c1cccs1 [‘1350],Barr2+GRK2 hCB2,Log [Compound] (M) -4.22186,44.1172 and 39.7347
same,Gi1 hCB2,Log [Compound] (M) -4.22186,74.4771 and 77.5324
same,Gi2 hCB2,Log [Compound] (M) -4.22186,66.5499
same,GoB hCB2,Log [Compound] (M) -4.22186,56.9391 and 70.3563
same,Gz hCB2,Log [Compound] (M) -4.22186,58.5774 and 64.6863
same,Barr2+GRK2 hCB2,Log [Compound] (M) -4.63927,32.763 and 29.7899
same,Gi1 hCB2,Log [Compound] (M) -4.63927,72.942 and 75.6692
same,Gi2 hCB2,Log [Compound] (M) -4.63927,60.7879
same,GoB hCB2,Log [Compound] (M) -4.63927,56.4664 and 67.1616
same,Gz hCB2,Log [Compound] (M) -4.63927,78.3049 and 53.5883
same,Barr2+GRK2 hCB2,Log [Compound] (M) -5.05788,29.8124 and 18.7956
same,Gi1 hCB2,Log [Compound] (M) -5.05788,74.0429 and 76.6089
same,Gi2 hCB2,Log [Compound] (M) -5.05788,58.4001
same,GoB hCB2,Log [Compound] (M) -5.05788,54.53 and 64.4448
same,Gz hCB2,Log [Compound] (M) -5.05788,66.9683 and 41.1092
same,Barr2+GRK2 hCB2,Log [Compound] (M) -5.47381,34.9292 and 20.8945
same,Gi1 hCB2,Log [Compound] (M) -5.47381,72.8179 and 79.0878
same,Gi2 hCB2,Log [Compound] (M) -5.47381,60.2299
same,GoB hCB2,Log [Compound] (M) -5.47381,53.5084 and 63.1367
same,Gz hCB2,Log [Compound] (M) -5.47381,56.2566 and 45.2442
same,Barr2+GRK2 hCB2,Log [Compound] (M) -5.89285,30.1859 and 15.2974
same,Gi1 hCB2,Log [Compound] (M) -5.89285,75.9346 and 71.3757
same,Gi2 hCB2,Log [Compound] (M) -5.89285,59.8925
same,GoB hCB2,Log [Compound] (M) -5.89285,55.4448 and 59.3006
same,Gz hCB2,Log [Compound] (M) -5.89285,73.8416 and 43.9289
same,Barr2+GRK2 hCB2,Log [Compound] (M) -6.31878,31.1196 and 18.9955
same,Gi1 hCB2,Log [Compound] (M) -6.31878,70.1509 and 73.9032
same,Gi2 hCB2,Log [Compound] (M) -6.31878,59.7627
same,GoB hCB2,Log [Compound] (M) -6.31878,55.1551 and 56.3448
same,Gz hCB2,Log [Compound] (M) -6.31878,71.9968 and 45.6141
same,Barr2+GRK2 hCB2,Log [Compound] (M) -6.72585,25.5172 and 13.5483
same,Gi1 hCB2,Log [Compound] (M) -6.72585,69.1585 and 77.5649
same,Gi2 hCB2,Log [Compound] (M) -6.72585,61.5795
same,GoB hCB2,Log [Compound] (M) -6.72585,54.5452 and 57.5649
same,Gz hCB2,Log [Compound] (M) -6.72585,45.4258 and 40.2871
same,Barr2+GRK2 hCB2,Log [Compound] (M) -7.14267,30.2979 and 16.2969
same,Gi1 hCB2,Log [Compound] (M) -7.14267,65.6232 and 81.2265
same,Gi2 hCB2,Log [Compound] (M) -7.14267,58.2833
same,GoB hCB2,Log [Compound] (M) -7.14267,51.8616 and 63.3506
same,Gz hCB2,Log [Compound] (M) -7.14267,50.5436 and 34.8285
same,Barr2+GRK2 hCB2,Log [Compound] (M) -7.55284,26.2642 and 26.7415
same,Gi1 hCB2,Log [Compound] (M) -7.55284,64.5377 and 66.7095
same,Gi2 hCB2,Log [Compound] (M) -7.55284,59.5551
same,GoB hCB2,Log [Compound] (M) -7.55284,57.4727 and 58.7094
same,Gz hCB2,Log [Compound] (M) -7.55284,50.2461 and 38.3305
same,Barr2+GRK2 hCB2,Log [Compound] (M) -8,20.9979 and 17.0465
same,Gi1 hCB2,Log [Compound] (M) -8,54.8465 and 52.1925
same,Gi2 hCB2,Log [Compound] (M) -8,54.4549
same,GoB hCB2,Log [Compound] (M) -8,47.1654 and 53.6784
same,Barr2+GRK2 hCB2,Log [Compound] (M) -8.22186,23.9859 and 16.2469
same,Gi1 hCB2,Log [Compound] (M) -8.22186,56.5677 and 32.8473
same,Gi2 hCB2,Log [Compound] (M) -8.22186,55.2855
same,GoB hCB2,Log [Compound] (M) -8.22186,43.0943 and 48.7228
same,Gz hCB2,Log [Compound] (M) -8.22186,50.1568 and 46.2389
same,Gi1 hCB2,Log [Compound] (M) -8.39794,38.2861 and 47.0726
same,Gi2 hCB2,Log [Compound] (M) -8.39794,44.5921
same,GoB hCB2,Log [Compound] (M) -8.39794,29.1733 and 38.4595
same,Gi1 hCB2,Log [Compound] (M) -8.68787,27.0908 and 14.9764
same,Gi2 hCB2,Log [Compound] (M) -8.68787,26.6573
same,GoB hCB2,Log [Compound] (M) -8.68787,22.9675 and 22.9513
same,Gi2 hCB2,Log [Compound] (M) -9.15521,7.477
same,Gi2 hCB2,Log [Compound] (M) -9.61989,-6.111
same,Gi2 hCB2,Log [Compound] (M) -10.0969,-9.55
same,Gi2 hCB2,Log [Compound] (M) -10.5529,-9.589
same,Gi2 hCB2,Log [Compound] (M) -11.0177,-8.914
same,Gi2 hCB2,Log [Compound] (M) -11.4949,-12.1971
same,Gi2 hCB2,Log [Compound] (M) -11.9208,-11.8078
same,Gi2 hCB2,Log [Compound] (M) -12.3979,-13.4949
same,Gi2 hCB2,Log [Compound] (M) -12.8861,-11.678
same,Gi2 hCB2,Log [Compound] (M) -13,-15.0781
same,Gz hCB2,Log [Compound] (M) -13,-3.497
same,Barr2+GRK2 hCB2,[1],-10.739
same,GoB hCB2,[1],0.1984
same,Gz hCB2,[1],0.9754
same,pEC50 [95% CI],hCB2 Gi1,8.45 [8.4 – 8.5]
same,"RE, relative efficacy",hCB2 Gi1,0.29
same,pEC50 [95% CI],hCB2 Gi2,8.79 [8.7 – 8.9]
same,"RE, relative efficacy",hCB2 Gi2,0.40
same,pEC50 [95% CI],hCB2 GoB,8.58 [8.5 – 8.7]
same,"RE, relative efficacy",hCB2 GoB,0.40
same,"RE, relative efficacy",hCB2 Gz,0.22
same,"RE, relative efficacy",hCB2 ßarr2+GRK2,0.92
same,G13 hCB2,Log [Compound] (M) -4.22186,370
same,G15 hCB2,Log [Compound] (M) -4.22186,861
same,Gq hCB2,Log [Compound] (M) -4.22186,1817
same,Gs hCB2,Log [Compound] (M) -4.22186,9372
same,G13 hCB2,Log [Compound] (M) -4.63927,318
same,G15 hCB2,Log [Compound] (M) -4.63927,875
same,Gq hCB2,Log [Compound] (M) -4.63927,1909
same,Gs hCB2,Log [Compound] (M) -4.63927,9159
same,G13 hCB2,Log [Compound] (M) -5.05788,339
